According to US20250197374A1, “WEE1 DEGRADING COMPOUNDS AND USES THEREOF” (BRISTOL-MYERS SQUIBB COMPANY, priority 2023, published 2025):

Assays:
Format in all cases: cell-based
WEE1 = target: T1, WEE1 (Homo sapiens, UniProt P30291+Q96SW2); test: WEE1-ePL degradation assay (293T-LentiX, InCELL Hunter luminescence, 4 hr); settings: for DC50: LentiX-HEK293T cells expressing WEE1-ePL, 4 hr incubation, read-out: 293T-LentiX WEE1-ePL Degradation 4 hr EC50; for 293T-LentiX WEE1-ePL Degradation 4 hr YMin (%): lower limit of fit, % of DMSO control signal remaining
T1 construct: C-terminal ePL-tagged (DiscoverX, Fremont, CA) full-length WEE1 expression construct; expressed in transfected cells; host or cells: LentiX-HEK293T (Invitrogen), lentivirally transduced; the cells also over-express GSPT1-GN
T1 sequence (P30291 whole entry): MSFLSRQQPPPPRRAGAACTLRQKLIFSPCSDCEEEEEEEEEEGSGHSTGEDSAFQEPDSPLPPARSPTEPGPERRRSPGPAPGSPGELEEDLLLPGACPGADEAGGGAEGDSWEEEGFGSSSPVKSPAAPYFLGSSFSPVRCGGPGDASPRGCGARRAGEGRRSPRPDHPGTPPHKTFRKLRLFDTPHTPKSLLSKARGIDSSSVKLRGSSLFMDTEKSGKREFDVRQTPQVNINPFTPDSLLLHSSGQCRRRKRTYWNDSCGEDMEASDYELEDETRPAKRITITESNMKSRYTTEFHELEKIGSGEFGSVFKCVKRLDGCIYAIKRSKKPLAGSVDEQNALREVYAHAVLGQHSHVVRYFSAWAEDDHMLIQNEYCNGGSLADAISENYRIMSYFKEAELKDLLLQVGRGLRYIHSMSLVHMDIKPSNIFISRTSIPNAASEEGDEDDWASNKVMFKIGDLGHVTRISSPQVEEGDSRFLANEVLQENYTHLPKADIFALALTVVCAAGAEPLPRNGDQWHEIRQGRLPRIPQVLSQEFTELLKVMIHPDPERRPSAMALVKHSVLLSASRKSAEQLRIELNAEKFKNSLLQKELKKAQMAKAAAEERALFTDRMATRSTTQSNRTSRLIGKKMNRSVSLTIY
T1 sequence (Q96SW2 whole entry): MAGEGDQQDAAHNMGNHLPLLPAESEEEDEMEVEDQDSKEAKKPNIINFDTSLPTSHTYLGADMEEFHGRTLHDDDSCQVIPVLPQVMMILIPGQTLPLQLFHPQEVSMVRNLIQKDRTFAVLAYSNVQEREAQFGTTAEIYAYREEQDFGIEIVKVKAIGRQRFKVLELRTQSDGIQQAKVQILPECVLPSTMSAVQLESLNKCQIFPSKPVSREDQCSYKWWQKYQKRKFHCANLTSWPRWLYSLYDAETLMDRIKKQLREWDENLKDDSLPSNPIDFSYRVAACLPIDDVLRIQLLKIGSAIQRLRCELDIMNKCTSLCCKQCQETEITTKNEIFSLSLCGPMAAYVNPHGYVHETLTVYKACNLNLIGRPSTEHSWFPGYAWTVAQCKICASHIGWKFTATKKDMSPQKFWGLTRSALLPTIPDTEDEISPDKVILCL
T1 sequence (Q16531 whole entry partner): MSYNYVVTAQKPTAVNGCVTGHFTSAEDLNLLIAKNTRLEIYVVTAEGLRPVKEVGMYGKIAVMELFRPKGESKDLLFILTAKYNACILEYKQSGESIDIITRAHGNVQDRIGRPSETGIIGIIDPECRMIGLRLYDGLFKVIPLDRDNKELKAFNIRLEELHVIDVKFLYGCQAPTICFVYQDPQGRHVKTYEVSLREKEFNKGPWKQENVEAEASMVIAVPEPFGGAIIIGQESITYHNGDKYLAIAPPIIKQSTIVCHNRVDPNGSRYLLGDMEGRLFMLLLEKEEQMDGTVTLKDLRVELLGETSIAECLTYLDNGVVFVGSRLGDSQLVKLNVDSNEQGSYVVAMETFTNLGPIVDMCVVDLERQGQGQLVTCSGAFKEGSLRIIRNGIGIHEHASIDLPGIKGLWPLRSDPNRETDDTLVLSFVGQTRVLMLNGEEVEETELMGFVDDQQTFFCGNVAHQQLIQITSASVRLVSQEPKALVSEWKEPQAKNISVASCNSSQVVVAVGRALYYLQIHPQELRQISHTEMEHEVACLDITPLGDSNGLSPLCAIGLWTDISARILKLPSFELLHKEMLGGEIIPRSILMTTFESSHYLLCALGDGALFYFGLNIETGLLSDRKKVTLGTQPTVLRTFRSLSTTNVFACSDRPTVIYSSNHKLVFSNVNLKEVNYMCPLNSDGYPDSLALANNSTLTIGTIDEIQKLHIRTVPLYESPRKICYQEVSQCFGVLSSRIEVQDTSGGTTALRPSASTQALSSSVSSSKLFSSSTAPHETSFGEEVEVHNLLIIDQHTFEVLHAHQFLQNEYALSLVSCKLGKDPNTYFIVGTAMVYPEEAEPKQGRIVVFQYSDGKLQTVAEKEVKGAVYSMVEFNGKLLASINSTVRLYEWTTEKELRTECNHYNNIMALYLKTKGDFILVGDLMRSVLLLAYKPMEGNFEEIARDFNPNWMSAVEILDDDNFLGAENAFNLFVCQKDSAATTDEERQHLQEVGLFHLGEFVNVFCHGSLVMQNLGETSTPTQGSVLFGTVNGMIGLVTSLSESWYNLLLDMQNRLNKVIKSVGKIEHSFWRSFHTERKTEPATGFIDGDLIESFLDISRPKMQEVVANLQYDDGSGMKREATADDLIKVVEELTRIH
Method in brief: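 LentiX-HEK293T cells expressing C-terminally ePL-tagged full-length WEE1 plus non-degradable GSPT1-GN (G575N, N-terminal 158 aa truncated). Treated 4 h at 37 °C with a 10-point, 3-fold series from 1 or 10 µM, then read by InCELL Hunter luminescence. EC50 from four-parameter logistic fit, Ymax set by DMSO control.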

MKN45 cells = test: MKN45 cell proliferation assay (Cell-Titer-Glo, 120 hr); settings: for EC50: Homo sapiens, MKN-45, 120 h, read-out: MKN45 Cell Prolif. 120 hr EC50; for MKN45 Cell Prolif. 120 hr YMin (%): minimal percent of DMSO control observed
Method in brief: (§1)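 MKN45 (400/well) and MDA-MB-231 (800/well) cells in RPMI with 10% FBS were exposed to 10-point half-log doses from 1 or 10 uM (0.1% DMSO) for 120 h at 37 °C. Viability was read by CellTiter-Glo luminescence. EC50 came from blank-subtracted, %DMSO four-parameter fits, with Ymin-obs as the lowest %DMSO observed.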

MDA-MB-231 cells = test: MDA-MB-231 cell proliferation assay (Cell-Titer-Glo, 120 hr); settings: for EC50: Homo sapiens, MDA-MB-231, 120 h, read-out: MDA-MB 231 Cell Prolif. 120 hr EC50; for MDA-MB 231 Cell Prolif. 120 hr YMin (%): minimal percent of DMSO control observed
Method in brief: as §1

DC50 (WEE1) [µM]	293T-LentiX WEE1-ePL Degradation 4 hr YMin (%) (WEE1)	EC50 (MKN45 cells) [µM]	EC50 (MDA-MB-231 cells) [µM]	SMILES	MKN45 Cell Prolif. 120 hr YMin (%) (MKN45 cells)	MDA-MB 231 Cell Prolif. 120 hr YMin (%) (MDA-MB-231 cells)
0.001	29.3	0.001	0.028	COC[C@@H]1CN(Cc2cc(F)c3nc(COC4CCOCC4)ccc3c2)C[C@H]1Oc1ccc2c(c1)CN([C@H]1CCC(=O)NC1=O)C2=O [Example 33, (3S)-3-(5-{[(3S,4S)-1-({8-fluoro-2-[(oxan-4-yloxy)methyl]quinolin-6-yl}methyl)-4-(methoxymethyl)pyrrolidin-3-yl]oxy}-1-oxo-2,3-dihydro-1H-isoindol-2-yl)piperidine-2,6-dione]	9.7	28.6
0.004	21.8	0.004	0.108	COC[C@@H]1CN(Cc2cc(F)c3nc(COC4CCN(C)CC4)ccc3c2)C[C@H]1Oc1ccc2c(c1)CN([C@H]1CCC(=O)NC1=O)C2=O [Example 34, (3S)-3-(5-{[(3S,4S)-1-[(8-fluoro-2-{[(1-methylpiperidin-4-yl)oxy]methyl}quinolin-6-yl)methyl]-4-(methoxymethyl)pyrrolidin-3-yl]oxy}-1-oxo-2,3-dihydro-1H-isoindol-2-yl)piperidine-2,6-dione]	6.9	30.7
0.001	28.1	0.002	0.033	COC[C@@H]1CN(Cc2cc(F)c3nc(N4CCN(CC(F)(F)F)CC4)ncc3c2)C[C@H]1Oc1ccc2c(c1)CN([C@H]1CCC(=O)NC1=O)C2=O [Example 35, (3S)-3-(5-{[(3S,4S)-1-({8-fluoro-2-[4-(2,2,2-trifluoroethyl)piperazin-1-yl]quinazolin-6-yl}methyl)-4-(methoxymethyl)pyrrolidin-3-yl]oxy}-1-oxo-2,3-dihydro-1H-isoindol-2-yl)piperidine-2,6-dione]	10.0	16.7
0.009	30.2	0.009	0.141	COC[C@@H]1CN(Cc2cc(F)c3nc(C4CN(C(C)=O)C4)ccc3c2)C[C@H]1Oc1ccc2c(c1)CN([C@H]1CCC(=O)NC1=O)C2=O [Example 36, (3S)-3-(5-{[(3S,4S)-1-{[2-(1-acetylazetidin-3-yl)-8-fluoroquinolin-6-yl]methyl}-4-(methoxymethyl)pyrrolidin-3-yl]oxy}-1-oxo-2,3-dihydro-1H-isoindol-2-yl)piperidine-2,6-dione]	10.5	32.4
	30.1	0.001	0.122	COC[C@@H]1CN(Cc2cc(F)c3nc(C4CN(CC(F)(F)F)C4)ccc3c2)C[C@H]1Oc1ccc2c(c1)CN([C@H]1CCC(=O)NC1=O)C2=O [Example 37, (3S)-3-(5-{[(3S,4S)-1-({8-fluoro-2-[1-(2,2,2-trifluoroethyl)azetidin-3-yl]quinolin-6-yl}methyl)-4-(methoxymethyl)pyrrolidin-3-yl]oxy}-1-oxo-2,3-dihydro-1H-isoindol-2-yl)piperidine-2,6-dione]	11.0	6.3
0.001	28.0		0.019	COC[C@@H]1CN(Cc2cc3ccc(C4CCN(CC(F)(F)F)CC4)cc3cn2)C[C@H]1Oc1ccc2c(c1)CN([C@H]1CCC(=O)NC1=O)C2=O [Example 38, (3S)-3-(5-{[(3S,4S)-4-(methoxymethyl)-1-({7-[1-(2,2,2-trifluoroethyl)piperidin-4-yl]isoquinolin-3-yl}methyl)pyrrolidin-3-yl]oxy}-1-oxo-2,3-dihydro-1H-isoindol-2-yl)piperidine-2,6-dione]	9.8	21.6
	31.6	0.001	0.025	COC[C@@H]1CN(Cc2cc3ccc(N4CCN(CC(F)(F)F)CC4)cc3cn2)C[C@H]1Oc1ccc2c(c1)CN([C@H]1CCC(=O)NC1=O)C2=O [Example 39, (3S)-3-(5-{[(3S,4S)-4-(methoxymethyl)-1-({7-[4-(2,2,2-trifluoroethyl)piperazin-1-yl]isoquinolin-3-yl}methyl)pyrrolidin-3-yl]oxy}-1-oxo-2,3-dihydro-1H-isoindol-2-yl)piperidine-2,6-dione]	10.3	41.6
0.003	30.9	0.005	0.228	COC[C@@H]1CN(Cc2cc3ccc(C(C)(C)O)cc3cn2)C[C@H]1Oc1ccc2c(c1)CN([C@H]1CCC(=O)NC1=O)C2=O [Example 40, (3S)-3-(5-{[(3S,4S)-1-{[7-(2-hydroxypropan-2-yl)isoquinolin-3-yl]methyl}-4-(methoxymethyl)pyrrolidin-3-yl]oxy}-1-oxo-2,3-dihydro-1H-isoindol-2-yl)piperidine-2,6-dione]	10.2	1.8
0.022	30.3	0.01	0.151	COC[C@@H]1CN(Cc2cc(F)c3nc(C(C)(C)O)ncc3c2)C[C@H]1Oc1ccc2c(c1)CN([C@H]1CCC(=O)NC1=O)C2=O [Example 41, (3S)-3-(5-{[(3S,4S)-1-{[8-fluoro-2-(2-hydroxypropan-2-yl)quinazolin-6-yl]methyl}-4-(methoxymethyl)pyrrolidin-3-yl]oxy}-1-oxo-2,3-dihydro-1H-isoindol-2-yl)piperidine-2,6-dione]	12.5	39.1
0.008	31.5	0.009	0.122	COC[C@@H]1CN(Cc2cc(F)c3nc(COC4CCOCC4)ncc3c2)C[C@H]1Oc1ccc2c(c1)CN([C@H]1CCC(=O)NC1=O)C2=O [Example 42, (3S)-3-(5-{[(3S,4S)-1-({8-fluoro-2-[(oxan-4-yloxy)methyl]quinazolin-6-yl}methyl)-4-(methoxymethyl)pyrrolidin-3-yl]oxy}-1-oxo-2,3-dihydro-1H-isoindol-2-yl)piperidine-2,6-dione]	12.2	33.0
0.133	34.3	0.038	0.52	COC[C@@H]1CN(Cc2cc(F)c3nc(COC4CCN(C)CC4)ncc3c2)C[C@H]1Oc1ccc2c(c1)CN([C@H]1CCC(=O)NC1=O)C2=O [Example 43, (3S)-3-(5-{[(3S,4S)-1-[(8-fluoro-2-{[(1-methylpiperidin-4-yl)oxy]methyl}quinazolin-6-yl)methyl]-4-(methoxymethyl)pyrrolidin-3-yl]oxy}-1-oxo-2,3-dihydro-1H-isoindol-2-yl)piperidine-2,6-dione]	10.0	51.3
0.001	27.8	0.001	0.014	COC[C@@H]1CN(Cc2cc(F)c3nc(N4CCN(CC(F)(F)F)CC4)ccc3c2)C[C@H]1Oc1ccc2c(c1)CN([C@H]1CCC(=O)NC1=O)C2=O [Example 44, (3S)-3-(5-{[(3S,4S)-1-({8-fluoro-2-[4-(2,2,2-trifluoroethyl)piperazin-1-yl]quinolin-6-yl}methyl)-4-(methoxymethyl)pyrrolidin-3-yl]oxy}-1-oxo-2,3-dihydro-1H-isoindol-2-yl)piperidine-2,6-dione]	8.9	22.3
0.053	31.5	0.035	0.278	COC[C@@H]1CN(Cc2cc(F)c3nc(C4CN(C(C)=O)C4)ncc3c2)C[C@H]1Oc1ccc2c(c1)CN([C@H]1CCC(=O)NC1=O)C2=O [Example 45, (3S)-3-(5-{[(3S,4S)-1-{[2-(1-acetylazetidin-3-yl)-8-fluoroquinazolin-6-yl]methyl}-4-(methoxymethyl)pyrrolidin-3-yl]oxy}-1-oxo-2,3-dihydro-1H-isoindol-2-yl)piperidine-2,6-dione]	13.4	52.6
0.004	26.2	0.002	0.018	COC[C@@H]1CN(Cc2cc(F)c3nc(C4CN(CC(F)(F)F)C4)ncc3c2)C[C@H]1Oc1ccc2c(c1)CN([C@H]1CCC(=O)NC1=O)C2=O [Example 46, (3S)-3-(5-{[(3S,4S)-1-({8-fluoro-2-[1-(2,2,2-trifluoroethyl)azetidin-3-yl]quinazolin-6-yl}methyl)-4-(methoxymethyl)pyrrolidin-3-yl]oxy}-1-oxo-2,3-dihydro-1H-isoindol-2-yl)piperidine-2,6-dione]	8.7	17.7
